Drawing on ChEMBL document CHEMBL1151926, “Synthesis and SAR of C12-C13-oxazoline derivatives of epothilone A” (Bioorg Med Chem Lett, 2009), this text covers IC50 and Activity for 9 compounds.

The subject of one assay is A549. The assay is described as follows: Antiproliferative activity against human A549 cells after 72 hrs. Format: functional, cell-based. Particulars: A549, 72 h.
Assay [1] relates to Tubulin (Sus scrofa). The assay can be described thus: Induction of porcine brain tubulin polymerization at 2 uM relative to 25 uM epothilone B.
In another assay the test system is MCF7. The assay is described as follows: Antiproliferative activity against human MCF7 cells after 72 hrs. Format: functional, cell-based. Conditions: MCF7, 72 h.
The subject of assay [2] is Tubulin (Sus scrofa). The assay is described as follows: Induction of porcine brain tubulin polymerization at 5 uM relative to 25 uM epothilone B.
A short description of assay [3]: Antiproliferative activity against human KB-3-1 cells after 72 hrs. Format: functional, cell-based. Particulars: KB 3-1, 72 h.

By IC50 is commonly meant the midpoint of a concentration-inhibition curve. Read a low IC50 as greater potency.

For `CCc1ccc(C2=N[C@H]3CCC[C@H](C)[C@H](O)[C@@H](C)C(=O)C(C)(C)[C@@H](O)CC(=O)O[C@H](/C(C)=C/c4csc(C)n4)C[C@@H]3O2)cc1`, the half-inhibitory concentration (IC50) came out at 378 nM in the assay on A549 and 297 nM with MCF7. Moreover, the Activity in the assay with Tubulin (Sus scrofa) [1] turned out to be 32%; in the assay with Tubulin (Sus scrofa) [2], 36%.

Regarding `C/C(=C\c1csc(C)n1)[C@@H]1C[C@@H]2OC(c3ccc(C)cc3)=N[C@H]2CCC[C@H](C)[C@H](O)[C@@H](C)C(=O)C(C)(C)[C@@H](O)CC(=O)O1`, the IC50 in the assay on A549 amounted to 2.9 nM; with MCF7, 1.9 nM. Also, the figures for the Activity in the assay with Tubulin (Sus scrofa) [1] and with Tubulin (Sus scrofa) [2] were 71% and 88%, respectively.

For the compound `CC1=N[C@H]2CCC[C@H](C)[C@H](O)[C@@H](C)C(=O)C(C)(C)[C@@H](O)CC(=O)O[C@H](/C(C)=C/c3csc(C)n3)C[C@@H]2O1`, the IC50 in assay [3] was above 1000 nM.

In the case of `C/C(=C\c1csc(C)n1)[C@@H]1C[C@@H]2OC(c3cccnc3)=N[C@H]2CCC[C@H](C)[C@H](O)[C@@H](C)C(=O)C(C)(C)[C@@H](O)CC(=O)O1`, the IC50 with A549 was 0.92 nM; in the assay with MCF7, 1.3 nM. Also, the Activity in the assay with Tubulin (Sus scrofa) [1] came to 78%; with Tubulin (Sus scrofa) [2], 93%.

Consider `COC1=N[C@H]2CCC[C@H](C)[C@H](O)[C@@H](C)C(=O)C(C)(C)[C@@H](O)CC(=O)O[C@H](/C(C)=C/c3csc(C)n3)C[C@@H]2O1`, for which the concentration for half-maximal inhibition (IC50) in assay [3] was above 1000 nM.

In the case of `C/C(=C\c1csc(C)n1)[C@@H]1C[C@@H]2OC(c3ccccc3)=N[C@H]2CCC[C@H](C)[C@H](O)[C@@H](C)C(=O)C(C)(C)[C@@H](O)CC(=O)O1`, the concentration for half-maximal inhibition (IC50) in the assay on A549 stood at 16.4 nM; with MCF7, 19.2 nM. For the same compound, the Activity with Tubulin (Sus scrofa) [1] was found to be 65%; with Tubulin (Sus scrofa) [2], 80%.

Regarding `C/C(=C\c1csc(C)n1)[C@@H]1C[C@@H]2OC(c3ccc(C(C)C)cc3)=N[C@H]2CCC[C@H](C)[C@H](O)[C@@H](C)C(=O)C(C)(C)[C@@H](O)CC(=O)O1`, the IC50 in the assay with A549 came out at 4870 nM; with MCF7 it was 5140 nM. Further, the Activity came out at 14% with Tubulin (Sus scrofa) [1] and 15% in the assay with Tubulin (Sus scrofa) [2].

With `C/C(=C\c1csc(C)n1)[C@@H]1C[C@@H]2OC(c3ccc(C(C)(C)C)cc3)=N[C@H]2CCC[C@H](C)[C@H](O)[C@@H](C)C(=O)C(C)(C)[C@@H](O)CC(=O)O1`, the IC50 in the assay on A549 and in the assay on MCF7 was above 10000 nM throughout. Further, the Activity in the assay with Tubulin (Sus scrofa) [1] is 0%; with Tubulin (Sus scrofa) [2], 7%.

Turning to `C/C(=C\c1csc(C)n1)[C@@H]1CC2O[C@@H]2CCC[C@H](C)[C@H](O)[C@@H](C)C(=O)C(C)(C)[C@@H](O)CC(=O)O1` (single isomer, unassigned) [EPOTHILONE A], the half-maximal inhibitory concentration (IC50) is 2.2 nM with A549 and 2.6 nM with MCF7. The Activity with Tubulin (Sus scrofa) [1] is 83%; in the assay on Tubulin (Sus scrofa) [2] it was 89%.
